This is an account of results in US20260274892A1, “MACROCYCLIC BROAD SPECTRUM ANTIBIOTICS” (RQx Pharmaceuticals, Inc., priority 2017, published 2026).

This test deals with Escherichia coli ATCC 25922. Put plainly: Minimum inhibitory concentration (MIC), CLSI broth micro-dilution, E. coli. It is filed as cell-based. As to conditions: Escherichia coli. The protocol:
In vitro antimicrobial activity of each compound was determined by measuring minimal inhibitor concentrations (MICs) using the broth micro-dilution technique as approved by the Clinical and Laboratory Standards Institute (CLSI) (Methods for Dilution Antimicrobial Susceptibility Tests for Bacteria that Grow Aerobically; Approved Standard-Eighth Edition. CLSI document M07-A8. Wayne, PA: Clinical and Laboratroy Standards; 2009). Antibacterial activity was measure against two strains of bacteria: a Methicillin Resistant Staphylococcus aureus strain USA 200, (S. aureus) and Escherichia coli ATCC 25922 (E. coli), a clinically relevant Gram-negative strain. Cells were inoculated onto plates of Trypyticase Soy Agar or Luria Agar respectively and grown at 35° C. for 20 hours. Inocula suspensions were prepared by scraping cells into 1 mL of testing media (cation adjusted Mueller Hinton Broth supplemented with 0.002% v/v Tween-80) and diluting to a final OD600nm of 0.01.
Test compounds were prepared in DMSO at a concentration of 10 mg/mL. In protocol 1, the compound stocks were diluted into testing media at a concentration of 64 µg/ml and serial 2-fold dilutions were made in the same media, in 96-well U bottom microtiter dishes, for a total of 10 compound concentrations. In protocol 2, the compound stocks were diluted into testing media at a concentration of 4 µg/mL and serial 2-fold dilutions were made in the same media, in 96-well U bottom microtiter dishes, for a total of 10 compound concentrations. In protocol 3, compound stocks were diluted into testing media at a concentration of 0.5 μg/mL, with serial 2-fold dilutions conducted as described above. In protocol 4, compound stocks were diluted into testing media at a concentration of […], with serial 2-fold dilutions conducted as described above. Inocula suspensions were added to the 2-fold serial dilutions of test compounds to a final density of GD OD600nm of 0.0005 and incubated at 35° C. for 22 hours.
(Broth dilution looks for growth in wells or tubes with falling amounts of substance.)

Where [1] appears, read: ATCC25922, Table 7, cation adjusted Mueller Hinton Broth + 0.002% Tween-80, 35° C., 22 hours.
[2] abbreviates: ATCC25922, Table 6, cation adjusted Mueller Hinton Broth + 0.002% Tween-80, 35° C., 22 hours.
The mark [3] stands for this setting: ATCC25922, 22 h, Table 7, cation adjusted Mueller Hinton Broth + 0.002% Tween-80, 35° C.

With `Cc1nc(-c2ccc(C(C)(C)C)cc2)nc(C)c1C(=O)N[C@@H](CCN)C(=O)N(C)[C@@H]1C(=O)N[C@@H](C)C(=O)N[C@H](C(=O)NCC#N)Cc2ccc(OC[C@H](O)CN)c(c2)-c2cc1ccc2O` (racemic) [Compound 614, rac-(8S,11S,14S)-N-(cyanomethyl)-18-hydroxy-11-methyl-14-[methyl-[rac-(2S)-4-amino-2-[[2-(4-tert-butylphenyl)-4,6-dimethyl-pyrimidine-5-carbonyl]amino]butanoyl]amino]-10,13-dioxo-3-[rac-(2R)-3-amino-2-hydroxy-propoxy]-9,12-diazatricyclo[13.3.1.12,6]icosa-1(18),2(20),3,5,15(19),16-hexaene-8-carboxamide], the MIC (in general, the least concentration at which growth counts as inhibited) under setting [1] is 0.19 µM.

As for `CCCCCOc1ccc(-c2ncc(C(=O)N[C@@H](CCN)C(=O)N(C)[C@@H]3C(=O)N[C@@H](C)C(=O)N[C@H](C(=O)NCC#N)Cc4ccc(OCCN)c(c4)-c4cc3ccc4OCCN)c(C)n2)cc1` (racemic) [Compound 241, rac-(8S,11S,14S)-3,18-bis(2-aminoethoxy)-N-(cyanomethyl)-11-methyl-14-[methyl-[rac-(2S)-4-amino-2-[[4-methyl-2-(4-pentoxyphenyl)pyrimidine-5-carbonyl]amino]butanoyl]amino]-10,13-dioxo-9,12-diazatricyclo[13.3.1.12,6]icosa-1(18),2(20),3,5,15(19),16-hexaene-8-carboxamide], under setting [2], the minimum inhibitory concentration (MIC) stood at 0.097 µM.

On to `Cc1nc(-c2ccc(C(C)(C)C)cc2)nc(C)c1C(=O)N[C@@H](CCN)C(=O)N(C)[C@@H]1C(=O)N[C@@H](C)C(=O)N[C@H](C(=O)NCC#N)Cc2ccc(OCCCN)c(c2)-c2cc1ccc2O` (racemic) [Compound 597, rac-(8S,11S,14S)-3-(3-aminopropoxy)-N-(cyanomethyl)-18-hydroxy-11-methyl-14-[methyl-[rac-(2S)-4-amino-2-[[2-(4-tert-butylphenyl)-4,6-dimethyl-pyrimidine-5-carbonyl]amino]butanoyl]amino]-10,13-dioxo-9,12-diazatricyclo[13.3.1.12,6]icosa-1(18),2(20),3,5,15(19),16-hexaene-8-carboxamide], for which the MIC under setting [3] came out at 0.26 µM.

As for `CCCCOc1c(F)c(F)c(-c2nc(C)c(C(=O)N[C@@H](CCN)C(=O)N(C)[C@@H]3C(=O)N[C@@H](C)C(=O)N[C@H](C(=O)NCC#N)Cc4ccc(OCCN)c(c4)-c4cc3ccc4OCCN)c(C)n2)c(F)c1F` (racemic) [Compound 351, rac-(8S,11S,14S)-3,18-bis(2-aminoethoxy)-N-(cyanomethyl)-11-methyl-14-[methyl-[rac-(2S)-4-amino-2-[[2-(4-butoxy-2,3,5,6-tetrafluoro-phenyl)-4,6-dimethyl-pyrimidine-5-carbonyl]amino]butanoyl]amino]-10,13-dioxo-9,12-diazatricyclo[13.3.1.12,6]icosa-1(18),2(20),3,5,15(19),16-hexaene-8-carboxamide], under “ATCC25922, 22 h, Table 6, cation adjusted Mueller Hinton Broth + 0.002% Tween-80, 35° C.”, the MIC amounted to 0.25 µM.

As to `Cc1nc(-c2ccc(C(C)(C)C)cc2)nc(C)c1C(=O)N[C@@H](CCN)C(=O)N(C)[C@@H]1C(=O)N[C@@H](C)C(=O)N[C@H](C(=O)NCC#N)Cc2ccc(OCC(CN)CN)c(c2)-c2cc1ccc2O` (racemic) [Compound 610, rac-(8S,11S,14S)-3-[3-amino-2-(aminomethyl)propoxy]-N-(cyanomethyl)-18-hydroxy-11-methyl-14-[methyl-[rac-(2S)-4-amino-2-[[2-(4-tert-butylphenyl)-4,6-dimethyl-pyrimidine-5-carbonyl]amino]butanoyl]amino]-10,13-dioxo-9,12-diazatricyclo[13.3.1.12,6]icosa-1(18),2(20),3,5,15(19),16-hexaene-8-carboxamide], the MIC under setting [3] was determined as 0.19 µM.

`CCCCc1ccc(-c2cc(C)c(C(=O)N[C@@H](CCN)C(=O)N(C)[C@@H]3C(=O)N[C@@H](C)C(=O)N[C@H](C(=O)NCC#N)Cc4ccc(OCCN)c(c4)-c4cc3ccc4OCCN)c(C)n2)nc1` (racemic) [Compound 365, rac-(8S,11S,14S)-3,18-bis(2-aminoethoxy)-N-(cyanomethyl)-11-methyl-14-[methyl-[rac-(2S)-4-amino-2-[[6-(5-butyl-2-pyridyl)-2,4-dimethyl-pyridine-3-carbonyl]amino]butanoyl]amino]-10,13-dioxo-9,12-diazatricyclo[13.3.1.12,6]icosa-1(18),2(20),3,5,15(19),16-hexaene-8-carboxamide]: the MIC under setting [2] came out at 0.31 µM.

As for `COc1c(OCCN)cc2cc1-c1cc(ccc1OCCN)C[C@@H](C(=O)NCC#N)NC(=O)[C@H](C)NC(=O)[C@H]2N(C)C(=O)[C@H](CNS(N)(=O)=O)NC(=O)c1c(C)nc(-c2ccc(C(C)(C)C)cc2)nc1C` (racemic) [Compound 585, rac-(8S,11S,14S)-3,17-bis(2-aminoethoxy)-N-(cyanomethyl)-18-methoxy-11-methyl-14-[methyl-[rac-(2S)-2-[[2-(4-tert-butylphenyl)-4,6-dimethyl-pyrimidine-5-carbonyl]amino]-3-(sulfamoylamino)propanoyl]amino]-10,13-dioxo-9,12-diazatricyclo[13.3.1.12,6]icosa-1(18),2(20),3,5,15(19),16-hexaene-8-carboxamide], the MIC under setting [1] was determined as 0.38 µM.

For `Cc1cc(-c2ccc(C(C)(C)C)cc2)ncc1C(=O)N[C@@H](CCN)C(=O)N(C)[C@@H]1C(=O)N[C@@H](C)C(=O)N[C@H](C(=O)NCC#N)Cc2ccc(OCCN)c(c2)-c2cc1ccc2OCCN` (racemic) [Compound 215, rac-(8S,11S,14S)-3,18-bis(2-aminoethoxy)-N-(cyanomethyl)-11-methyl-14-[methyl-[rac-(2S)-4-amino-2-[[6-(4-tert-butylphenyl)-4-methyl-pyridine-3-carbonyl]amino]butanoyl]amino]-10,13-dioxo-9,12-diazatricyclo[13.3.1.12,6]icosa-1(18),2(20),3,5,15(19),16-hexaene-8-carboxamide], the MIC under setting [2] is 0.13 µM.

With `Cc1nc(Oc2ccc(C(C)(C)C)cc2)nc(C)c1C(=O)N[C@@H](CCN)C(=O)N(C)[C@@H]1C(=O)N[C@@H](C)C(=O)N[C@H](C(=O)NCC#N)Cc2ccc(OCCN)c(c2)-c2cc1ccc2OCCN` (racemic) [Compound 353, rac-(8S,11S,14S)-3,18-bis(2-aminoethoxy)-N-(cyanomethyl)-11-methyl-14-[methyl-[rac-(2S)-4-amino-2-[[2-(4-tert-butylphenoxy)-4,6-dimethyl-pyrimidine-5-carbonyl]amino]butanoyl]amino]-10,13-dioxo-9,12-diazatricyclo[13.3.1.12,6]icosa-1(18),2(20),3,5,15(19),16-hexaene-8-carboxamide], the MIC under setting [2] was determined as 2 µM.

As to `Cc1nc(-c2ccc(C3(C(F)(F)F)CC3)cc2)ccc1C(=O)N[C@@H](CCN)C(=O)N(C)[C@@H]1C(=O)N[C@@H](C)C(=O)N[C@H](C(=O)NCC#N)Cc2ccc(OCCN)c(c2)-c2cc1ccc2OCCN` (racemic) [Compound 211, rac-(8S,11S,14S)-3,18-bis(2-aminoethoxy)-N-(cyanomethyl)-11-methyl-14-[methyl-[rac-(2S)-4-amino-2-[[2-methyl-6-[4-[1-(trifluoromethyl)cyclopropyl]phenyl]pyridine-3-carbonyl]amino]butanoyl]amino]-10,13-dioxo-9,12-diazatricyclo[13.3.1.12,6]icosa-1(18),2(20),3,5,15(19),16-hexaene-8-carboxamide], the MIC under setting [2] amounted to 0.17 µM.
